# Source: PMC9824012, “Exploring Antimicrobial Peptides Efficacy against Fire Blight (Erwinia amylovora)” (Plants, 2022)
# Ends that are not written are not given here.
# System: Erwinia amylovora
# Experiment: Spot test screening of AMPs on plates
# Assay type: cell-based, Erwinia amylovora strain PGL Z1
# Parameters: key to Spot test result at 1 mM / Spot test result at 500 µM / Spot test result at 250 µM / Spot test result at 100 µM / Spot test result at 50 µM / Spot test result at 25 µM / Spot test result at 12.5 µM: +: Clear plaque formation; -: no plaque formation
# Conditions: 5 µL peptide at 12.5 µM spotted on plate with E. amylovora 10^8 CFU/mL, overnight at 25 °C
# Protocol: The bacterial material consisted of E. amylovora strain PGL Z1, isolated in 2013 from pear in Apulia region (Italy), and Xanthomonas campestris pv. campestris strain CFBP 1710 (X. campestris), isolated in 1975 from Brassica oleracea var. botrytis in France, which was used as a control to investigate the bactericidal activity and action mode of AMPs against two different bacteria. The bacterial strains were cultured on yeast extract peptone glucose agar (YPGA) and broth (YPG) media, consisting of 0.5% yeast extract, 0.5% peptone, 1% glucose and 1.5% agar. E. amylovora and X. campestris cell suspensions were prepared in sterile distilled water and the suspensions were adjusted to an optical density at 600 nm (OD600) of 0.1, which corresponds approximately to 10^8 CFU/mL.
# The nine AMPs were screened using the spot test to select those with the best antibacterial activity against E. amylovora. Briefly, 300 µL of E. amylovora suspension (10^8 CFU/mL) was poured into the plates and maintained at room temperature for 15 min. Subsequently, 5 μL from each peptide at different concentrations (1000, 500, 250, 100, 50, 25 and 12.5 μM) was spotted onto the surface of the plates, followed by overnight incubation at 25 °C. Sterile distilled water was spotted in the plates as a control.
# Supplementary Table S1. Results of the spot tests for the nine antimicrobial peptides used against Erwinia
# Ascaphin-8 GF-19 + + + + + - -
# DASamP1 FF-13 + + + - - - -
# DASamP2 IL-14 + + + + + - -
# Lycotoxin I IL-25 + + + + - - -
# Maculatin 1.3 GF-21 + + + - - - -
# Piscidin 1 FG-22 + + + + + - -
# BP178 KL-29 + + + + + + -
# RIJK2 RV-12 + + + - - - -
# +: Clear plaque formation; -: no plaque formation.
row,Substance,Spot test result at 12.5 µM
1,"FFGKVLKLIRKIF-NH2 [FF13, DASamP1, synthetic antimicrobial peptide, synthesized by ProteoGenix]",-
2,"GLLGLLGSVVSHVVPAIVGHF-NH2 [GF21, Maculatin 1.3, antimicrobial peptide of frog origin, synthesized by ProteoGenix]",-
3,Lycotoxin I [IL25],-
4,"RIVWVRIRRWFV-NH2 [RV12, RIJK2, synthetic antimicrobial peptide, synthesized by ProteoGenix]",-
5,"VQFRIRVRIVIRK-NH2 [VK13, 1036, synthetic antimicrobial peptide, synthesized by ProteoGenix]",-

# Same assay, conditions: 5 µL peptide at 25 µM spotted on plate with E. amylovora 10^8 CFU/mL, overnight at 25 °C
row,Substance,Spot test result at 25 µM
1,"FFGKVLKLIRKIF-NH2 [FF13, DASamP1, synthetic antimicrobial peptide, synthesized by ProteoGenix]",-
2,"GLLGLLGSVVSHVVPAIVGHF-NH2 [GF21, Maculatin 1.3, antimicrobial peptide of frog origin, synthesized by ProteoGenix]",-
3,Lycotoxin I [IL25],-
4,"RIVWVRIRRWFV-NH2 [RV12, RIJK2, synthetic antimicrobial peptide, synthesized by ProteoGenix]",-
5,"VQFRIRVRIVIRK-NH2 [VK13, 1036, synthetic antimicrobial peptide, synthesized by ProteoGenix]",-

# Same assay, conditions: 5 µL peptide at 50 µM spotted on plate with E. amylovora 10^8 CFU/mL, overnight at 25 °C
row,Substance,Spot test result at 50 µM
1,"FFGKVLKLIRKIF-NH2 [FF13, DASamP1, synthetic antimicrobial peptide, synthesized by ProteoGenix]",-
2,"GLLGLLGSVVSHVVPAIVGHF-NH2 [GF21, Maculatin 1.3, antimicrobial peptide of frog origin, synthesized by ProteoGenix]",-
3,Lycotoxin I [IL25],-
4,"RIVWVRIRRWFV-NH2 [RV12, RIJK2, synthetic antimicrobial peptide, synthesized by ProteoGenix]",-
5,"VQFRIRVRIVIRK-NH2 [VK13, 1036, synthetic antimicrobial peptide, synthesized by ProteoGenix]",-

# Same assay, conditions: 5 µL peptide at 100 µM spotted on plate with E. amylovora 10^8 CFU/mL, overnight at 25 °C
row,Substance,Spot test result at 100 µM
1,"FFGKVLKLIRKIF-NH2 [FF13, DASamP1, synthetic antimicrobial peptide, synthesized by ProteoGenix]",-
2,"GLLGLLGSVVSHVVPAIVGHF-NH2 [GF21, Maculatin 1.3, antimicrobial peptide of frog origin, synthesized by ProteoGenix]",-
3,Lycotoxin I [IL25],+
4,"RIVWVRIRRWFV-NH2 [RV12, RIJK2, synthetic antimicrobial peptide, synthesized by ProteoGenix]",-
5,"VQFRIRVRIVIRK-NH2 [VK13, 1036, synthetic antimicrobial peptide, synthesized by ProteoGenix]",-

# Same assay, conditions: 5 µL peptide at 250 µM spotted on plate with E. amylovora 10^8 CFU/mL, overnight at 25 °C
row,Substance,Spot test result at 250 µM
1,"FFGKVLKLIRKIF-NH2 [FF13, DASamP1, synthetic antimicrobial peptide, synthesized by ProteoGenix]",+
2,"GLLGLLGSVVSHVVPAIVGHF-NH2 [GF21, Maculatin 1.3, antimicrobial peptide of frog origin, synthesized by ProteoGenix]",+
3,Lycotoxin I [IL25],+
4,"RIVWVRIRRWFV-NH2 [RV12, RIJK2, synthetic antimicrobial peptide, synthesized by ProteoGenix]",+
5,"VQFRIRVRIVIRK-NH2 [VK13, 1036, synthetic antimicrobial peptide, synthesized by ProteoGenix]",+

# Same assay, conditions: 5 µL peptide at 500 µM spotted on plate with E. amylovora 10^8 CFU/mL, overnight at 25 °C
row,Substance,Spot test result at 500 µM
1,"FFGKVLKLIRKIF-NH2 [FF13, DASamP1, synthetic antimicrobial peptide, synthesized by ProteoGenix]",+
2,"GLLGLLGSVVSHVVPAIVGHF-NH2 [GF21, Maculatin 1.3, antimicrobial peptide of frog origin, synthesized by ProteoGenix]",+
3,Lycotoxin I [IL25],+
4,"RIVWVRIRRWFV-NH2 [RV12, RIJK2, synthetic antimicrobial peptide, synthesized by ProteoGenix]",+
5,"VQFRIRVRIVIRK-NH2 [VK13, 1036, synthetic antimicrobial peptide, synthesized by ProteoGenix]",+

# Same assay, conditions: 5 µL peptide at 1 mM spotted on plate with E. amylovora 10^8 CFU/mL, overnight at 25 °C
row,Substance,Spot test result at 1 mM
1,"FFGKVLKLIRKIF-NH2 [FF13, DASamP1, synthetic antimicrobial peptide, synthesized by ProteoGenix]",+
2,"GLLGLLGSVVSHVVPAIVGHF-NH2 [GF21, Maculatin 1.3, antimicrobial peptide of frog origin, synthesized by ProteoGenix]",+
3,Lycotoxin I [IL25],+
4,"RIVWVRIRRWFV-NH2 [RV12, RIJK2, synthetic antimicrobial peptide, synthesized by ProteoGenix]",+
5,"VQFRIRVRIVIRK-NH2 [VK13, 1036, synthetic antimicrobial peptide, synthesized by ProteoGenix]",+
